Laboratory results as given in PMC10962836, “Cis-regulatory polymorphism at fiz ecdysone oxidase contributes to polygenic evolutionary response to malnutrition in Drosophila” (PLOS Genetics, 2024).

Biological target: T1, Fiz (Drosophila melanogaster, UniProt Q9VY04)
T1 construct: N-terminal RGS-6xHis tag kept; E. coli Rosetta Gami DE3, Ni-NTA; contains FAD
T1 sequence (Q9VY04 2-646): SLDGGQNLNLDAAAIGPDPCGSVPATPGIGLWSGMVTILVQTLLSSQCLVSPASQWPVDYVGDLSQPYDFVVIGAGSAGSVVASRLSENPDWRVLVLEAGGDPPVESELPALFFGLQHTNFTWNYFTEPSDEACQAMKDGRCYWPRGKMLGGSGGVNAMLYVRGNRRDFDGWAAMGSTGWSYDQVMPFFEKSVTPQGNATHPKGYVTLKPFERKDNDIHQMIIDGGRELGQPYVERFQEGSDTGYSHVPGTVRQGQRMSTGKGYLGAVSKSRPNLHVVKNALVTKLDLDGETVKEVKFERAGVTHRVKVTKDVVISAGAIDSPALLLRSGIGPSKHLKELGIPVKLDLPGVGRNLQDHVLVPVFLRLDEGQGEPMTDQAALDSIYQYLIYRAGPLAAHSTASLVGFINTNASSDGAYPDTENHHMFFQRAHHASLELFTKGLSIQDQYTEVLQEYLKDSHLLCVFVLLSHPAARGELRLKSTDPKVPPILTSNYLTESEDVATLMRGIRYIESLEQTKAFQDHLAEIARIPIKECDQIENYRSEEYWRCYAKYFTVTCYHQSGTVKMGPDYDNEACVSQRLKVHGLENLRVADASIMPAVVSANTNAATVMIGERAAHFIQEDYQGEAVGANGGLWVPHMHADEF
Assay: FAD content of purified protein (method in supplement)
Assay type: binding
Conditions: co-purified from E. coli, no FAD addition told

Cc1cc2nc3c(=O)[nH]c(=O)nc-3n(C[C@H](O)[C@H](O)[C@H](O)COP(=O)(O)OP(=O)(O)OC[C@H]3O[C@@H](n4cnc5c(N)ncnc54)[C@H](O)[C@@H]3O)c2cc1C [FAD]
FAD content of purified protein (method in supplement): we confirmed that our purified Fiz contained FAD
